# Laboratory results from patent US9186385B2 (priority 2009, dated 2015).
# Columns and labels:
# [1] = tested on: permeability of the intraperitoneal blood capillary; experiment: Anti-inflammatory effect: permeability of the intraperitoneal blood capillary (acetic acid, Evans blue); type: in vivo, NIH mice; conditions: 0.15 g/kg intragastric once a day, 3 days; acetic acid i.p.; OD 570 nm
# Experimental: The anti-inflammatory effects of the extract compositions AB and ABC were determined for a series of treatment groups through measurement of the permeability of the intraperitoneal blood capillary.
# NIH mice, weighing 20±2 g, were used in this experiment. […] The rearing temperature was 23±2° C. The mice were randomly divided into nine groups with 10 mice in each group: (1) blank control, (2) model control, (3) AB high dosage (15 g/kg), (4) AB mid dosage (7.5 g/kg), (5) AB low dosage (3.75 g/kg), (6) ABC high dosage (13.0 g/kg), (7) ABC mid dosage (7.66 g/kg), (8) ABC low dosage (3.83 g/kg), and (9) sodium salicylate group (0.15 g/kg).
# An acetic normal saline solution was prepared by dissolving about a 0.4% of glacial acetic acid in 50 ml of a normal saline solution.
# A 2% Evans blue normal saline solution was prepared by dissolving 2 g of Evans blue in 100 ml of normal saline solution. […]
# About twenty minutes following the receipt of the saline injections, each mouse was sacrificed by breaking its cervical vertebrae. […] The supernatant was then collected and the absorbance or optical density (OD) of the supernatant was measured at 570 nm using a spectrophotometer. The experimental data was analyzed. Data was assessed using the t-test to determine statistically significant differences between the results of each of the groups. […]
# [2] = tested on: foot swelling induced by carrageenan; experiment: Rat foot swelling induced by carrageenan; type: in vivo, Rats; conditions: 0.15 g/kg oral once a day, 4 days
# Experimental: The anti-inflammatory effects of the extract compositions AB and ABC were determined for a series of treatment groups through measurement of the foot swelling of rat paws following the administration of carrageenan.
# Rats weighing 200±20 g were used in this experiment. Each test group comprised the same number of male and female animals. Rearing temperature was 23±2° C. The rats were divided into eight groups with 10 rats each: (1) model control, (2) AB high dosage (15 g/kg), (3) AB mid dosage (7.5 g/kg), (4) AB low dosage (3.75 g/kg), (5) ABC high dosage (13.0 g/kg), (6) ABC mid dosage (7.66 g/kg), (7) ABC low dosage (3.83 g/kg), (8) sodium salicylate group (0.15 g/kg), […]. There was no blank control in this experiment as there is no swelling of an animal paws where carrageenan is not administered
# The method for conducting this experiment followed the guidelines outlined in the Manual on Studies of New Medicines of TCM by the Drug Administration Ministry of Health P.R.C. The method outlined in the manual details the following steps:
# 1. Draw a clear transverse line situated on the upper and front angles of the left back paw of each rat with a ballpoint pen;
# 2. Measure the paw volume of each rat;
# 3. Subcutaneously inject each rat, except those in the blank control group, with a dose of carrageenan (0.05 ml/paw) into the metatarsus of the hindlimb;
# 4. Orally administer one of the treatments of the AB extract, ABC extract, or sodium salicylate as per the above-noted dosages once a day for a period of 4 days. Rats in the model control group and blank were injected with saline of the same volume;
# 5. On the morning of the 4th day, one hour following the last administration of the final treatment, subcutaneously inject carrageenan (0.05 ml/paw) into the metatarsus of hindlimb of each rat;
# 6. Measure the paw volume at each of 1 hour, 2 hours, 3 hours, and 4 hours following the second carrageenan administration; and
# 7. Calculate the paw swelling percentage for each rat.
# The swelling percentage was calculated by the following formula: Swelling percentage=((swelling volumes of rat paw after inflammation−swelling volumes of rat paw before inflammation)/swelling volumes of rat paw before inflammation)×100%
# The experimental data was analyzed using the t-test to determine statistically significant differences between the results of each of the groups. There was no swelling in the paws of rats in the blank control group. The anti-inflammatory effects of the AB and ABC herbal extract compositions and sodium salicylate were considered to be effective when P was less than 0.05.
# [3] = tested on: type 1 FM1 influenza virus; experiment: Inhibition of the FM1 influenza virus in mice (lung index); type: in vivo, NIH mice
# [4] = tested on: antibody level of hemolysin; experiment: Circulating antibody level test on sheep red blood cells (cyclophosphamide immunodeficient mice); type: in vivo; conditions: 0.03 g/kg gastric infusion 7 days; cyclophosphamide-treated mice; OD 540 nm
# Experimental: The anti-inflammatory effects of the extract compositions AB and ABC were determined for a series of treatment groups through the circulating antibody level test on sheep red blood cells.
# Mice weighing 20-25 g were used in this study. Each group comprised an equal number of male and female animals. Rearing temperature was 23±2° C. The mice were divided into nine groups with 10 rats each: (1) blank control, (2) model control, (3) AB high dosage (15 g/kg), (4) AB mid dosage (7.5 g/kg), (5) AB low dosage (3.75 g/kg), (6) ABC high dosage (13.0 g/kg), (7) ABC mid dosage (7.66 g/kg), (8) ABC low dosage (3.83 g/kg), and (9) levamisole (0.03 g/kg).
# The treatments of placebo and extract compositions were administered to each of the mice by gastric infusion for a period of 7 days. On the 2nd, 4th, and 6th day, each mouse, with the exception of those in the blank control group, was injected intraperitoneally with 50 mg/10 ml/kg of cyclophosphamide. Mice in the blank control group were injected intraperitoneally with saline of the same volume. Three days following administration of the final treatment (on day 7), all mice were each immunized by intraperitoneal injections of 0.2 ml of sheep erythrocyte suspension (5% of sheep erythrocyte in saline). […] The absorbance for each supernatant sample was recorded as an index of serum hemolytic level. […]
# [5] = tested on: peritoneal macrophage phagocytosis; experiment: Peritoneal macrophage phagocytosis in mice (India ink clearance, cyclophosphamide); type: in vivo; conditions: 0.03 g/kg gastric infusion 7 days; cyclophosphamide-treated mice
# [6] = […], 0.07 g/kg intragastric once a day, 3 days, day 4
smiles,measurement,setting,value
"O=C([O-])c1ccccc1O.[Na+] [Sodium salicylate, sodium salicylate]",OD value of haemolysin in serum,[1],0.305 ± 0.060
same,Paw swelling,[2]; 1 h after carrageenan,0.490 ± 0.202 mL
same,Paw swelling,[2]; 2 h after carrageenan,0.405 ± 0.195 mL
same,Paw swelling,[2]; 3 h after carrageenan,0.265 ± 0.153 mL
same,Paw swelling,[2]; 4 h after carrageenan,0.170 ± 0.136 mL
NC(=O)c1ncn([C@@H]2O[C@H](CO)[C@@H](O)[C@H]2O)n1 [Ribavirin],Lung Index,[3]; [6],1.19 ± 0.30 g/g
same,Weight,[3]; [6],14.94 ± 1.64 g
same,The rate of inhibition of lung index,"[3]; mouse, in vivo",32.38%
"c1ccc([C@H]2CN3CCSC3=N2)cc1 [Levamisole, levamisole]",OD value of hemolysin,[4],0.75 ± 0.006
same,Phagocytic coefficient (K),[5],0.046 ± 0.007
same,Phagocytic coefficient index (α),[5],6.76 ± 0.43
